Laboratory results published in patent US20220091128A1, “SYSTEM AND METHOD FOR LIGAND THERMAL ANALYSIS” (Portland State University, priority 2019, published 2022).
Values joined by “and” are separate entries in the source; they are usually repeats but may differ in a detail not shown here. Identical values can stand only once. Like-named read-outs stand apart in the source and are kept apart here.

Key:
[1] = system: human plasma; experiment: DSC thermograms of plasma with ligand; format: binding; details: plasma
[2] = biological target: T1, HSA (Homo sapiens, UniProt P02768); parameters: purchased Sigma Aldrich (St. Louis, Mo.); details: cited from earlier work; for Kd: binding to HSA, read-out: Average Literature KD
T1 sequence (P02768 25-609): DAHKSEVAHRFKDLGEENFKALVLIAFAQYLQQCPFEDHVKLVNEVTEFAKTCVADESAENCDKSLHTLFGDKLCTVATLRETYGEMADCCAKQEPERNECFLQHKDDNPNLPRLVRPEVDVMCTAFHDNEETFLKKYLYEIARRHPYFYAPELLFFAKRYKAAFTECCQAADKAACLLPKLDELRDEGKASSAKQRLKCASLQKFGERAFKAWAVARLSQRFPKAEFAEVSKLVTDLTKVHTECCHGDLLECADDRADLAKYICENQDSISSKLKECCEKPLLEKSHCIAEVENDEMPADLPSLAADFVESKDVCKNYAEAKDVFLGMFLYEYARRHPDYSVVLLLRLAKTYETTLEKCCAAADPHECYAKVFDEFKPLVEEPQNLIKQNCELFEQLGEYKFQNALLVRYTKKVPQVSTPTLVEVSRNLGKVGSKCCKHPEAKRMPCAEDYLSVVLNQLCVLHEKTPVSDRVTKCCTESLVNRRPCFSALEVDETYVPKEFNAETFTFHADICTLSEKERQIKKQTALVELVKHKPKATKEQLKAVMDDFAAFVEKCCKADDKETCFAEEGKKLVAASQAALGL

[3] = biological target: T2, human serum albumin (HSA) (Homo sapiens, UniProt P02768); experiment: DSC thermograms of HSA with ligand (single-ligand titration); format: binding; details: for Binding Site stoichiometry / Implied number of sites: from dose response curves with HSA; for Tm / ΔG37^O / ΔHcal / ΔScal: thermal denaturation of HSA
T2 construct: purchased Sigma Aldrich (St. Louis, Mo.)
T2 sequence (P02768 25-609): as above
Description: Chemicals and reagents: Plasma and highly pure plasma proteins are sourced from commercial suppliers. Standard reagents are sourced from commercial suppliers. Samples are prepared in standard phosphate-buffered saline (PBS) buffer. In some examples, human plasma and serum albumin were purchased from Sigma Aldrich (St. Louis, Mo.) and received as lyophilized powder. Plasma was product number: P9523, lot number: SLBT0202. […] In vivo, the standard state of HSA is most certainly bound to some extent by fatty acids. Plasma and HSA stock solutions were prepared by re-suspending the appropriate amount of powder in buffer. Samples were prepared by diluting stock solutions to a final concentration of 1.5-2.0 mg/mL.
Protein concentration was approximately 2 mg/ml.
In a DSC melting experiment, the supplemental power supplied to the sample cell (in μW) necessary to keep the sample temperature equal to the reference temperature is continually monitored. […] Supplemental power is directly related to the molar heat capacity at constant pressure, ΔCp. Curves of ΔCp versus T provide an evaluation of the thermodynamic enthalpy. To enable direct comparisons in some cases, power (μW) versus T plots (instead of ΔCp versus T curves) were used for the following reason.
Analysis of DSC data was performed using the Nanoanalyze software package, version 3.7.5, provided by T.A. Instruments. […]
From the thermograms, semi-quantitative evaluations of the thermodynamic parameters ΔHcal, ΔScal and ΔGcal(37° C.) were obtained at each ligand concentration.
These curves were constructed from titrations of DM1 with HSA. The Tm and ΔGcal(37° C.) were evaluated. The values were normalized against standard HSA and plotted versus ligand concentration to provide the dose curves in FIG. 20A (Tm) and FIG. 20B (ΔGcal(37° C.)).
Natural HSA samples were prepared at pH 6.0 and pH 8.0 and examined by DSC. […] From DSC melting curves thermodynamic parameters for HSA/ligand mixtures were evaluated.

[4] = biological target: T2, human serum albumin (HSA); experiment: Two-ligand (NAP + BCG) binding to standard HSA by DSC
[5] = biological target: biotinylated HSA (HSAB) (Homo sapiens, UniProt P02768); experiment: DSC thermograms of biotinylated HSA (HSAB) with ligands; format: binding
Chain of biotinylated HSA (HSAB) (P02768 25-609): as above

[6] = biological target: T1, HSA; experiment: Drug screening: HSA binding constants from DSC thermograms
Description: (§1) Ligand solubilization: Stock solutions of aqueous insoluble ligands in organic solvents were pipetted into microcentrifuge tubes to yield a desired amount of drug for a 1 mL solution. The microcentrifuge tubes were placed into a vacuum concentrator (Savant SpeedVac Model SC100), and the organic solvents were evaporated, resulting in solid drug in the tube. To each tube, HSA is added at a predetermined concentration with standard buffer to provide a 1 mL working solution.
(§2) In total binding of 28 drug compounds to HSA was examined by obtaining thermograms.

[7] = biological target: T1, HSA
Description: as §1, §2

[8] = after several days; cited from earlier work
[9] = ligand 22.5 μM (so in the source)

## Cc1c(C2(c3cc(Br)c(O)c(Br)c3C)OS(=O)(=O)c3ccccc32)cc(Br)c(O)c1Br [BCG, bromocresol green]
[1]; 100 μM ligand
  shift in Tm: about 7 °C
[1]; 100 μM ligand (FIG. 10A)
  enthalpy (ΔHcal) of plasma with ligand: 141 kcal/mol
  major Tm peak of plasma shifted to: 72 °C
[2]; NAP Sudlow site II, BCG Sudlow site I
  binding stoichiometry n on HSA: 3
[2]
  Kd: 1.43 µM
[3]; HSA + ligand at pH 6.0, as much as
  increase of ΔGcal(37° C.) versus titration curve at pH 7.4: ~5 kcal/mol
[3]; HSA + ligand at pH 8.0
  lowering of ΔGcal(37° C.) versus titration curve at pH 7.4: ~2 kcal/mol
[3]; HSA, 100 μM ligand (text, FIG. 10B)
  ΔHcal of HSA/ligand: 165.6 kcal/mol and 166 kcal/mol
[3]
  Binding Site stoichiometry: 3
  Implied number of sites: 6
[3]; ligand 1 μM
  Tm: 62.9 °C
  ΔG37^O: 13.11 kcal/mol
  ΔHcal: 170.12 kcal/mol
  ΔScal: 506.23 cal/molK
[3]; ligand 10 μM
  Tm: 63.3 °C
  ΔG37^O: 13.83 kcal/mol
  ΔHcal: 176.99 kcal/mol
  ΔScal: 526.08 cal/molK
[3]; [9]
  Tm: 70.8 °C
  ΔG37^O: 16.43 kcal/mol
  ΔHcal: 167.24 kcal/mol
  ΔScal: 486.25 cal/molK
[3]; ligand 25 μM
  Tm: 63.6 °C
  ΔG37^O: 14.39 kcal/mol
  ΔHcal: 182.05 kcal/mol
  ΔScal: 540.59 cal/molK
[3]; ligand 50 μM
  Tm: 64.0 °C
  ΔG37^O: 15.19 kcal/mol
  ΔHcal: 189.75 kcal/mol
  ΔScal: 562.81 cal/molK
[3]; ligand 75 μM
  Tm: 64.6 °C
  ΔG37^O: 15.33 kcal/mol
  ΔHcal: 187.76 kcal/mol
  ΔScal: 555.95 cal/molK
[3]; ligand 125 μM
  Tm: 67.2 °C
  ΔG37^O: 16.18 kcal/mol
  ΔHcal: 182.33 kcal/mol
  ΔScal: 535.71 cal/molK
[3]; ligand 150 μM
  Tm: 69.0 °C
  ΔG37^O: 16.74 kcal/mol
  ΔHcal: 178.84 kcal/mol
  ΔScal: 522.66 cal/molK
[3]; ligand 175 μM
  Tm: 69.1 °C
  ΔG37^O: 15.92 kcal/mol
  ΔHcal: 169.77 kcal/mol
  ΔScal: 496.04 cal/molK
[3]; ligand 200 μM
  Tm: 70.3 °C
  ΔG37^O: 16.24 kcal/mol
  ΔHcal: 167.42 kcal/mol
  ΔScal: 487.44 cal/molK
[4]; HSA25BCG (HSA + 25 μM BCG), [NAP] 0 μM
  Binding Chemical Potentials (ΔG^O37): 14.00 kcal/mol
[4]; HSA25NAP (pre-bound 25 μM NAP), [BCG] 50 μM
  Binding Chemical Potentials (ΔG^O37): 18.33 kcal/mol
[4]; HSA25NAP (pre-bound 25 μM NAP), [BCG] 75 μM
  Binding Chemical Potentials (ΔG^O37): 19.49 kcal/mol
[4]; HSA25NAP (pre-bound 25 μM NAP), [BCG] 150 μM
  Binding Chemical Potentials (ΔG^O37): 19.61 kcal/mol
[4]; HSA50BCG (HSA + 50 μM BCG), [NAP] 0 μM
  Binding Chemical Potentials (ΔG^O37): 15.13 kcal/mol
[4]; HSA50NAP (pre-bound 50 μM NAP), [BCG] 50 μM
  Binding Chemical Potentials (ΔG^O37): 18.27 kcal/mol
[4]; HSA50NAP (pre-bound 50 μM NAP), [BCG] 75 μM
  Binding Chemical Potentials (ΔG^O37): 18.47 kcal/mol
[4]; HSA50NAP (pre-bound 50 μM NAP), [BCG] 150 μM
  Binding Chemical Potentials (ΔG^O37): 19.29 kcal/mol
[4]; HSA75BCG (HSA + 75 μM BCG), [NAP] 0 μM
  Binding Chemical Potentials (ΔG^O37): 15.33 kcal/mol
[4]; HSA75NAP (pre-bound 75 μM NAP), [BCG] 50 μM
  Binding Chemical Potentials (ΔG^O37): 19.51 kcal/mol
[4]; HSA75NAP (pre-bound 75 μM NAP), [BCG] 75 μM
  Binding Chemical Potentials (ΔG^O37): 20.42 kcal/mol
[4]; HSA75NAP (pre-bound 75 μM NAP), [BCG] 150 μM
  Binding Chemical Potentials (ΔG^O37): 21.08 kcal/mol
[4]; WT HSA with 50 μM BCG, [NAP] 0 μM
  Binding Chemical Potentials (ΔG^O37): 15.19 kcal/mol
[4]; WT HSA with 50 μM NAP, [BCG] 50 μM
  Binding Chemical Potentials (ΔG^O37): 18.38 kcal/mol
[4]; WT HSA with 50 μM NAP, [BCG] 75 μM
  Binding Chemical Potentials (ΔG^O37): 18.74 kcal/mol
[4]; WT HSA with 50 μM NAP, [BCG] 150 μM
  Binding Chemical Potentials (ΔG^O37): 19.86 kcal/mol
[5]; HSAB 1:1 with 50 μM BCG, [NAP] 0 μM
  Binding Chemical Potentials (ΔG^O37): 18.49 kcal/mol
[5]; HSAB 1:1 with 50 μM NAP, [BCG] 50 μM
  Binding Chemical Potentials (ΔG^O37): 21.76 kcal/mol
[5]; HSAB 1:1 with 50 μM NAP, [BCG] 75 μM
  Binding Chemical Potentials (ΔG^O37): 22.56 kcal/mol
[5]; HSAB 1:1 with 50 μM NAP, [BCG] 150 μM
  Binding Chemical Potentials (ΔG^O37): 22.96 kcal/mol
[5]; HSAB 1:5 with 50 μM BCG, [NAP] 0 μM
  Binding Chemical Potentials (ΔG^O37): 21.27 kcal/mol
[5]; HSAB 1:5 with 50 μM NAP, [BCG] 50 μM
  Binding Chemical Potentials (ΔG^O37): 24.12 kcal/mol
[5]; HSAB 1:5 with 50 μM NAP, [BCG] 75 μM
  Binding Chemical Potentials (ΔG^O37): 25.60 kcal/mol
[5]; HSAB 1:5 with 50 μM NAP, [BCG] 150 μM
  Binding Chemical Potentials (ΔG^O37): 25.06 kcal/mol
[5]; HSAB 1:10 with 50 μM BCG, [NAP] 0 μM
  Binding Chemical Potentials (ΔG^O37): 22.37 kcal/mol
[5]; HSAB 1:10 with 50 μM NAP, [BCG] 50 μM
  Binding Chemical Potentials (ΔG^O37): 25.04 kcal/mol
[5]; HSAB 1:10 with 50 μM NAP, [BCG] 75 μM
  Binding Chemical Potentials (ΔG^O37): 25.30 kcal/mol
[5]; HSAB 1:10 with 50 μM NAP, [BCG] 150 μM
  Binding Chemical Potentials (ΔG^O37): 24.99 kcal/mol
[6]; read-out: Average Measured KD; binding to HSA; single value or value marked 1)
  Kd: 3.31 µM
[6]; read-out: Measured KD From TM; binding to HSA; single value or value marked 1)
  Kd: 4.97 µM
[6]; read-out: Measured KD from ΔG^037; binding to HSA; single value or value marked 1)
  Kd: 1.64 µM

## CNC[C@H](O)[C@@H](O)[C@H](O)[C@H](O)CO.CNC[C@H](O)[C@@H](O)[C@H](O)[C@H](O)CO.O=C([O-])CN(CCN(CC(=O)[O-])CC(=O)O)CCN(CC(=O)[O-])CC(=O)O.[Gd+3] [Magnevist (MAG)]
[7]
  Measured HSA binding (cell spanning the measured KD columns; same in text): No Binding Detected

## O=C([O-])CN1CCN(CC(=O)[O-])CCN([C@H](CO)[C@H](O)CO)CCN(CC(=O)[O-])CC1.[Gd+3] [Gadavist (GAD)]
[7]
  Measured HSA binding (cell spanning the measured KD columns; same in text): No Binding Detected

## CCCCNc1ccc(C(=O)OCCN(C)C)cc1 [Tet, Tetracaine]
[1]; 2 mg/mL ligand
  effect on fibrinogen melting transition peak (52° C.) of the plasma thermogram: slight change
[1]; 2 mg/mL ligand, control 62-64° C.
  Tm where the HSA in plasma transition occurs: 63-65 °C
[8]
  in vivo activity: retained significant activity after several days
[2]
  Kd: 59.8 µM
[3]
  Binding Site stoichiometry: 1
  Implied number of sites: 1
[6]; Average Measured KD, binding to HSA; single value or value marked 1)
  Kd: 26.1 µM
[6]; Measured KD From TM, binding to HSA; single value or value marked 1)
  Kd: 23.6 µM
[6]; Measured KD from ΔG^037, binding to HSA; single value or value marked 1)
  Kd: 28.6 µM
